Measurements reported in US8513423B2 (Janssen Pharmaceutica, NV, priority 2010, dated 2013).
Numbering of substitutions follows the chain as printed. Where two headings read alike, the source gives them in different places.

Legend:
[1] = molecular target: T1, purified wild type MGL (wt-MGLL 6H-11-313) (Homo sapiens, UniProt Q99685); test: MGL enzyme activity assay (4MU-B cleavage), wild type MGL; type: biochemical; settings: 10 μM 4MU-B, 5 nM enzyme, 37° C., read-out: MGL wild type inh IC50
T1 construct: purified wild type MGL (wt-MGLL 6H-11-313)
T1 sequence (Q99685 1-303): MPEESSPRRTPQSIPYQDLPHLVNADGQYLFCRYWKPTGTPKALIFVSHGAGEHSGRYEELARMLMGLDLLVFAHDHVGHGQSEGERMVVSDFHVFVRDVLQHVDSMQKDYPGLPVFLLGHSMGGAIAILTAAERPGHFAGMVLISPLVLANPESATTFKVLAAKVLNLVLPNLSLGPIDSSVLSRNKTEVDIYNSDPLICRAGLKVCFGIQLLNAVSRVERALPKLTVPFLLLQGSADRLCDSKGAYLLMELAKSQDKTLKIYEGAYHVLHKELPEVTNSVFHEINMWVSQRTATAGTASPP
How it was run: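 Enzyme (5 nM final) cleaved 4MU-B (10 μM final) in 20 mM PIPES pH 7.0 with 150 mM NaCl and 0.001% Tween 20. Compounds were tested at 17 to 0.0003 μM final. Fluorescence (ex 335/em 440 nm) was monitored at 37° C for 5 min, and IC50 was fitted from fractional activity versus inhibitor concentration.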

[2] = molecular target: T2, MGL (Rattus norvegicus, UniProt Q8R431); test: 2-AG accumulation assay in rat brain homogenate; type: biochemical; settings: compound @1 μM, read-out: Rat Brain 2AG % VehCntrl (%) @1 μM
T2 construct: one g rat brain was homogenized; from tissue; host or cells: rat brain homogenate
T2 sequence (Q8R431 1-303): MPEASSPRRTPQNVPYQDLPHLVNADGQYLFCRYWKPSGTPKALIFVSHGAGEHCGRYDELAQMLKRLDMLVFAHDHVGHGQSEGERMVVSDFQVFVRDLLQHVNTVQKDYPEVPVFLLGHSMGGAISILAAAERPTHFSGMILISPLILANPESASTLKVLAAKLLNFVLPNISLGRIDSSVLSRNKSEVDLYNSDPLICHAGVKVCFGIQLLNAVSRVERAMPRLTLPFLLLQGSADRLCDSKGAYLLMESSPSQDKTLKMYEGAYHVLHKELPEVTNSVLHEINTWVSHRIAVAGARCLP
Method: After a 15-min incubation time at 37° C., CaCl2 (final concentration=10 mM) was added and then incubated for 15 min at 37° C. in a total volume of 5 mL. The reactions were stopped with 6 mL organic solvent extraction solution of 2:1 chloroform/methanol. Accumulated 2-AG in the organic phase was measured by a HPLC/MS method, according to the following equation: percent vehicle=(2-AG accumulation in the presence of compound/2-AG accumulation in vehicle)×100.

[3] = molecular target: T3, mutant MGL (Homo sapiens, UniProt Q99685, L169S/L176S); test: MGL ThermoFluor assay - mutant; type: binding
T3 construct: purified mutant MGL (mut-MGLL 11-313 L179S L186S)
T3 sequence (Q99685 1-303 L169S/L176S): T1 sequence (Q99685 1-303) with L169S, L176S
How it was run: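 Thermal shift binding with 0.07 mg/ml L169S/L176S MGL, 100 μM 1,8-ANS, 200 mM NaCl, 0.001% Tween-20, 50 mM PIPES pH 7.0. Heated 40–90 °C at 1 °C/min, fluorescence (em 500 nm) tracked to give Tm; Kd fitted from 11-point concentration–Tm response, qKd when stocks quantified by qNMR.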

[4] = compound concentration measured by qNMR, read-out: MGL mutant ThermoFluor qKd (using qNMR conc.)
[5] = 0.07 mg/ml mutant MGL, pH=7.0, read-out: MGL mutant ThermoFluor Kd

SMILES	IC50 [1] [nM]	2-AG accumulation, percent of vehicle control at 1 µM [2] [%]	Kd [3, 4] [nM]	Kd [3, 5] [nM]
O=C(c1ccc(-c2cccc(C(F)(F)F)c2)cc1)N1CC(C2CCN(C(=O)c3nccs3)CC2)C1 [Cpd 16, 1-(1,3-Thiazol-2-ylcarbonyl)-4-(1-{[3′-(trifluoromethyl)biphenyl-4-yl]carbonyl}azetidin-3-yl)piperidine]	7	493	–	2
O=C(c1ccc(Cc2cccc(C(F)(F)F)c2)cc1)N1CCC(C2CN(C(=O)c3ccc[nH]3)C2)CC1 [Cpd 59, 4-[1-(1H-Pyrrol-2-ylcarbonyl)azetidin-3-yl]-1-({4-[3-(trifluoromethyl)benzyl]phenyl}carbonyl)piperidine]	11	346	9.4	20.2
O=C(c1ccc2nc(-c3ccccc3)oc2c1)N1CC(C2CCN(C(=O)c3cscn3)CC2)C1 [Cpd 34, 2-Phenyl-6-({3-[1-(1,3-thiazol-4-ylcarbonyl)piperidin-4-yl]azetidin-l-yl}carbonyl)-1,3-benzoxazole]	54.4	517	–	198
O=C(c1ccc(-c2ccc(C(F)(F)F)s2)cc1)N1CCC(C2CN(C(=O)c3cscn3)C2)CC1 [Cpd 55, 4-[1-(1,3-Thiazol-4-ylcarbonyl)azetidin-3-yl]-1-({4-[5-(trifluoromethyl)thiophen-2-yl]phenyl}carbonyl)piperidine]	13	733	2	–
O=C(c1nccs1)N1CCC(C2CN(C(=O)c3sc4cc(F)ccc4c3Cl)C2)CC1 [Cpd 8, 4-{1-[(3-Chloro-6-fluoro-1-benzothiophen-2-yl)carbonyl]azetidin-3-yl}-1-(1,3-thiazol-2-ylcarbonyl)piperidine]	7	523	–	4
Cc1c(C(=O)N2CCC(C3CN(C(=O)c4nccs4)C3)CC2)sc2cc(C(F)(F)F)ccc12 [Cpd 60, 1-{[3-Methyl-6-(trifluoromethyl)-1-benzothiophen-2-yl]carbonyl}-4-[1-(1,3-thiazol-2-ylcarbonyl)azetidin-3-yl]piperidine]	10	508	0.5	0.8
O=C(c1ccc(-c2cccc(C(F)(F)F)c2)cc1)N1CC(C2CCN(C(=O)c3cscn3)CC2)C1 [Cpd 10, 1-(1,3-Thiazol-4-ylcarbonyl)-4-(1-{[3′-(trifluoromethyl)biphenyl-4-yl]carbonyl}azetidin-3-yl)piperidine]	15.5	194	–	11
O=C(c1ccc(Cc2cccc(C(F)(F)F)c2)cc1)N1CCC(C2CN(C(=O)c3nccs3)C2)CC1 [Cpd 57, 4-[1-(1,3-Thiazol-2-ylcarbonyl)azetidin-3-yl]-1-({4-[3-(trifluoromethyl)benzyl]phenyl}carbonyl)piperidine]	17	869	5.9	–
O=C(c1ccc2c(ccn2-c2ccc(C(F)(F)F)cc2)c1)N1CCC(C2CN(C(=O)c3cscn3)C2)CC1 [Cpd 76, 5-({4-[1(1,3-Thiazol-4-ylcarbonyl)azetidin-3-yl]piperidin-1-yl}carbonyl)-1-[4-(trifluoromethyl)phenyl]-1H-indole]	11.4	731	8.3	–
O=C(c1ccc2nc(-c3ccccc3)oc2c1)N1CCC(C2CN(C(=O)c3ccc[nH]3)C2)CC1 [Cpd 68, 2-Phenyl-6-({4-[1-(1H-pyrrol-2-ylcarbonyl)azetidin-3-yl]piperidin-1-yl}carbonyl)-1,3-benzoxazole]	62.1	453	14.5	–
O=C(c1ccc(-c2ccccc2)cc1)N1CC(C2CCN(C(=O)c3ccns3)CC2)C1 [Cpd 3, 4-[1-(Biphenyl-4-ylcarbonyl)azetidin-3-yl]-1-(isothiazol-5-ylcarbonyl)piperidine]	33.9	135	–	55.7

The next compounds have a lower IC50 [1] than those just listed; values first:

IC50 [1] [nM]	2-AG accumulation, percent of vehicle control at 1 µM [2] [%]	Kd [3, 4] [nM]	Kd [3, 5] [nM]	SMILES
< 5	370	6.9	–	O=C(c1ccc(Cc2cccc(C(F)(F)F)c2)cc1)N1CCC(C2CN(C(=O)c3cscn3)C2)CC1 [Cpd 58, 4-[1-(1,3-Thiazol-4-ylcarbonyl)azetidin-3-yl]-1-({4-[3-(trifluoromethyl)benzyl]phenyl}carbonyl)piperidine]
< 5	611	26.4	–	O=C(c1ccc2c(ccn2-c2ccc(C(F)(F)F)cc2)c1)N1CC(C2CCN(C(=O)c3ccc[nH]3)CC2)C1 [Cpd 43, 5-({3-[1-(1H-Pyrrol-2-ylcarbonyl)piperidin-4-yl]azetidin-1-yl}carbonyl)-1-[4-(trifluoromethyl)phenyl]-1H-indole]
< 5	241	40.4	–	O=C(c1ccc(Cc2ccc(C(F)(F)F)cc2)cc1)N1CCC(C2CN(C(=O)c3ccc[nH]3)C2)CC1 [Cpd 65, 4-[1-(1H-Pyrrol-2-ylcarbonyl)azetidin-3-yl]-1-({4-[4-(trifluoromethyl)benzyl]phenyl}carbonyl)piperidine]
< 5	736	1.8	–	O=C(c1ccc(-c2ccc(C(F)(F)F)s2)cc1)N1CCC(C2CN(C(=O)c3nccs3)C2)CC1 [Cpd 54, 4-[1-(1,3-Thiazol-2-ylcarbonyl)azetidin-3-yl]-1-({4-[5-(trifluoromethyl)thiophen-2-yl]phenyl}carbonyl)piperidine]
< 5	539	1.2	–	O=C(c1nccs1)N1CC(C2CCN(C(=O)c3sc4cc(C(F)(F)F)ccc4c3Cl)CC2)C1 [Cpd 69, 1-{[3-Chloro-6-(trifluoromethyl)-1-benzothiophen-2-yl]carbonyl}-4-[1-(1,3-thiazol-2-ylcarbonyl)azetidin-3-yl]piperidine]
< 5	385	12.2	–	O=C(c1nccs1)N1CC(C2CCN(C(=O)c3ccc(-c4ccccc4)cc3F)CC2)C1 [Cpd 45]
< 5	860	4.9	–	O=C(c1ccc2c(ccn2-c2ccc(F)c(F)c2)c1)N1CCC(C2CN(C(=O)c3ccc[nH]3)C2)CC1 [Cpd 80, 1-(3,4-Difluorophenyl)-5-({4-[1-(1H-pyrrol-2-ylcarbonyl)azetidin-3-yl]piperidin-1-yl}carbonyl)-1H-indole]
< 5	107	21.3	–	O=C(c1ccc2c(ccn2-c2ccc(F)c(F)c2)c1)N1CC(C2CCN(C(=O)c3ccc[nH]3)CC2)C1 [Cpd 44]
< 5	272	3.1	4.1	O=C(c1ccc[nH]1)N1CCC(C2CN(C(=O)c3sc4cc(C(F)(F)F)ccc4c3Cl)C2)CC1 [Cpd 41, 4-(1-{[3-Chloro-6-(trifluoromethyl)-1-benzothiophen-2-yl]carbonyl}azetidin-3-yl)-1-(1H-pyrrol-2-ylcarbonyl)piperidine]
< 5	714	5	–	O=C(c1ccc2c(ccn2-c2ccc(C(F)(F)F)cc2)c1)N1CCC(C2CN(C(=O)c3ccc[nH]3)C2)CC1 [Cpd 77, 5-({4-[1-(1H-Pyrrol-2-ylcarbonyl)azetidin-3-yl]piperidin-1-yl}carbonyl)-1-[4-(trifluoromethyl)phenyl]-1H-indole]
